# Data: patent US20250064773A1, “TARGETING ERO1 ALPHA WITH AURONE DERIVATIVES” (West Virginia University Board of Governors on behalf of …, priority 2021, published 2025)
# How the values were obtained:
# [1] = test system: HCC4006; experiment: MTT viability assay, HCC4006; type: cell-based; conditions: Homo sapiens, NSCLC (adenocarcinoma), read-out: IC50 Avg ± s.d. (n = 3), HCC4006
# Excerpt: Cell Lines: PC-9 cell line used was obtained from Sigma Aldrich and grown in RPMI 1640 medium with 10% fetal bovine serum and 1% penicillin/streptomycin. HCC4006, U266, MM1.s, and Beas-2B cell lines were obtained from ATCC and cultured in either RPMI 1640 or DMEM with 10% fetal bovine serum and 1% penicillin/streptomycin. All cell lines were also checked for mycoplasma every six months and subjected to short tandem repeat (STR) analysis for cell line validation. CRISPR Cas9: CRISPR Guide RNA 2 targeting ERO1α and CRISPR Guide RNA 4 were purchased from Genscript in the pLentiCRISPR V2 plasmid containing puromycin/ampicillin selection marker. Lentivirus was made from HEK 293T cells by co-transfection with GuideRNA of interest, pVSVG, and pPAX2 plasmids. […] Plate was then read on the BioTek Cytation 5 at 530/590 nm. […] Plate was then read at 570 nm. Treated wells were all compared to DMSO control wells to calculate percent growth inhibition and the IC50 was calculated using GraphPad (log(inhibitor) vs growth inhibition). […] Images were then quantified using ImageJ. […] Cells were aliquoted at 1 million cells per PCR tube in PBS and heated in Bio-Rad T100 thermal cycler at indicated temperatures (RT, 46° C., 48° C., 50° C., 52° C., 54° C., 56°, 58° C., and 60° C.) for 3 minutes and aggregation temperature was determined by western blot analysis. […]
# [2] = target: LSD-1 (Homo sapiens, UniProt O60341); experiment: LSD-1 inhibitor screening assay kit (demethylase activity); type: biochemical; conditions: at concentrations ≤25 μM
# Excerpt: T151742 was used to generate a concentration response. […] Experiments performed in triplicates and shown is the mean and standard deviation of three independent experiments.
compound,measurement,setting,value
CN(C)c1ccc(/C=C2\Oc3cc(O)ccc3C2=O)cc1 [Compound T151742],IC50,[1],18.5 ± 14.7 µM
same,inhibition of LSD-1 demethylase activity,[2],did not inhibit
